# Source: publication PMC11969009 (Nature Communications, 2025)
# Where “and” joins values, the source holds several entries; their conditions need not be identical. Equal values may be shown once. Read-outs that look alike come from different tables or passages of the source.
# Tests used:
# [1] = test system: panel of human DUBs (ATXN3, Cezanne, OTUD1, USP10, USP21, UCHL3); format: biochemical
# USP10 = USP10 (Homo sapiens, UniProt Q14694); format: biochemical
# [2] = test system: SARS-CoV-2 clinical isolate VIC001; test: microbe, parasite or virus in culture; format: cell-based; conditions: Severe acute respiratory syndrome coronavirus 2, Vero, read-out: Antiviral EC50 (plaque assay)
# ATXN3 = ATXN3 (Homo sapiens, UniProt P54252); format: biochemical
# Chain of ATXN3 (P54252 whole entry): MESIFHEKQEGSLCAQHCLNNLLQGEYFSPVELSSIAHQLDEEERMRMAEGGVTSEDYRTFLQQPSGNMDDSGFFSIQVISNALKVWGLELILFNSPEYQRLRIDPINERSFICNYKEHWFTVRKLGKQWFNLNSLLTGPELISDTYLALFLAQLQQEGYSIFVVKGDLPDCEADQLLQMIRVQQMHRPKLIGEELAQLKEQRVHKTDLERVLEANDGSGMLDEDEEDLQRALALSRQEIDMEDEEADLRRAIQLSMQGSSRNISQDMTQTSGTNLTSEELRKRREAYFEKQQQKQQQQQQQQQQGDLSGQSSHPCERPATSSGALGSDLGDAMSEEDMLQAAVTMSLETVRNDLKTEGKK
# UCHL3 = UCHL3 (Homo sapiens, UniProt P15374); format: biochemical
# Chain of UCHL3 (P15374 whole entry): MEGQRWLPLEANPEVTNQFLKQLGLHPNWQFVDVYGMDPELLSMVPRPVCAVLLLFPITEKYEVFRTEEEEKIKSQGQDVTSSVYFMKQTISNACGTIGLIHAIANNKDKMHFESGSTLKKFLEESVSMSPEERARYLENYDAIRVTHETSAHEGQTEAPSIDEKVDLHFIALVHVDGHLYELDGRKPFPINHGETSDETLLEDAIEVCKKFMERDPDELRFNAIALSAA
# SARS-CoV-2 PLpro [3] = molecular target: T1, SARS-CoV-2 PLpro (Severe acute respiratory syndrome coronavirus 2, UniProt P0DTD1); test: biochemical; set-up: inhibition of SARS-CoV-2 PLpro, UbRh dose-response replicate value: unit: %; conditions: for IC50: IC50 (UbRh) SARS-CoV-2 PLpro
# SARS-CoV-2 PLpro [4] = molecular target: T1, SARS-CoV-2 PLpro; test: cell-based; format: cell-based
# SARS-CoV PLpro = SARS-CoV PLpro (Severe acute respiratory syndrome coronavirus, UniProt P0C6X7); test: biochemical; set-up: inhibition of SARS-CoV PLpro, UbRh dose-response replicate value: unit: %
# Cezanne = Cezanne (Homo sapiens, UniProt Q6GQQ9); format: biochemical
# Chain of Cezanne (Q6GQQ9 whole entry): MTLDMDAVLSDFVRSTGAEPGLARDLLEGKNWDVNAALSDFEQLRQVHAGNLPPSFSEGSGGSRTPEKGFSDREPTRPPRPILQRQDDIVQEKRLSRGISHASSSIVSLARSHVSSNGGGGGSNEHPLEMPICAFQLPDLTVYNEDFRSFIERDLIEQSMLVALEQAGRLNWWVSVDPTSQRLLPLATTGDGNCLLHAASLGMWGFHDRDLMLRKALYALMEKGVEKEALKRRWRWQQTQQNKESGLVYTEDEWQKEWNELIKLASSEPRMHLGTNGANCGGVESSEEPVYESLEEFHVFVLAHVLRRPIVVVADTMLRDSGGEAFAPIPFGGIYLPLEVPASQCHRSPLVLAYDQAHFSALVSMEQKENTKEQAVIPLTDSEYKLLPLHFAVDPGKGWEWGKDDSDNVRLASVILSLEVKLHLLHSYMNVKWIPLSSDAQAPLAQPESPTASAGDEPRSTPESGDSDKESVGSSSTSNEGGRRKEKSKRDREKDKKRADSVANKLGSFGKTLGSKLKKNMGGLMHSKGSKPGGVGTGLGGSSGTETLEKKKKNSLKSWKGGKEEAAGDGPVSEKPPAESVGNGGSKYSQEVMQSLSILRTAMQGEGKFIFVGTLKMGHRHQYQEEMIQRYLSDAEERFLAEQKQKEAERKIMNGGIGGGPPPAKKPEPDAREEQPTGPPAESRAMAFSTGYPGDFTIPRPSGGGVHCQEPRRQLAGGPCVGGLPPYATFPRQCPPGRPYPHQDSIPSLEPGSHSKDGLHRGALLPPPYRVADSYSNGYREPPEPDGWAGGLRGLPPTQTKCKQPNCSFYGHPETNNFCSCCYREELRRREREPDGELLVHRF
# SARS-CoV-2 PLpro [5] = molecular target: T1, SARS-CoV-2 PLpro
# MERS-CoV PLpro = MERS-CoV PLpro (Middle East respiratory syndrome-related coronavirus, UniProt K9N7C7); format: biochemical; set-up: unit: %
# Chain of MERS-CoV PLpro (K9N7C7 1482-1803 limits assumed): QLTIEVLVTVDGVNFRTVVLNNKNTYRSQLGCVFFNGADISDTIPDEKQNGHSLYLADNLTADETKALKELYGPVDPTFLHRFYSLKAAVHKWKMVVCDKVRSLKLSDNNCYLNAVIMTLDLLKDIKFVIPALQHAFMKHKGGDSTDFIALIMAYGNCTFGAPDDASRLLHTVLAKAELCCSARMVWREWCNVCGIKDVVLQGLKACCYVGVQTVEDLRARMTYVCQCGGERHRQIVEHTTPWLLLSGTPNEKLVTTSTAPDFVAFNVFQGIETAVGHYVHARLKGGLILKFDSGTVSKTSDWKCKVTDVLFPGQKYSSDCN
# USP21 = USP21 (Homo sapiens, UniProt Q9UK80); format: biochemical
# Chain of USP21 (Q9UK80 whole entry): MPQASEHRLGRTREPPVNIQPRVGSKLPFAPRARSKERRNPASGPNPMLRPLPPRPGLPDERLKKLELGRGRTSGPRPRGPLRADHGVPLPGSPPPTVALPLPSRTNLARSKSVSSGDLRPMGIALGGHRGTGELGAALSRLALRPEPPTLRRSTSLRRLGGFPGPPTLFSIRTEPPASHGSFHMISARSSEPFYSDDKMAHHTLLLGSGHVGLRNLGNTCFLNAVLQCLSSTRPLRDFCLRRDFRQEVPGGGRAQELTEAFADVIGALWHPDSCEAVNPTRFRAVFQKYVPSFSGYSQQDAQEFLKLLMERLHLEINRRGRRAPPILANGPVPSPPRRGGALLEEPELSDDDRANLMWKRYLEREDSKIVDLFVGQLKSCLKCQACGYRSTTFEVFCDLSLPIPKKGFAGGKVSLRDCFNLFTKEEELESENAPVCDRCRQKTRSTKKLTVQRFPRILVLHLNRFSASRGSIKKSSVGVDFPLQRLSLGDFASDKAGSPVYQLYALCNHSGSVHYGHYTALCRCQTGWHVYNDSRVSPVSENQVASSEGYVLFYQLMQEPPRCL
# OTUD1 = OTUD1 (Homo sapiens, UniProt Q5VV17); format: biochemical
# Chain of OTUD1 (Q5VV17 whole entry): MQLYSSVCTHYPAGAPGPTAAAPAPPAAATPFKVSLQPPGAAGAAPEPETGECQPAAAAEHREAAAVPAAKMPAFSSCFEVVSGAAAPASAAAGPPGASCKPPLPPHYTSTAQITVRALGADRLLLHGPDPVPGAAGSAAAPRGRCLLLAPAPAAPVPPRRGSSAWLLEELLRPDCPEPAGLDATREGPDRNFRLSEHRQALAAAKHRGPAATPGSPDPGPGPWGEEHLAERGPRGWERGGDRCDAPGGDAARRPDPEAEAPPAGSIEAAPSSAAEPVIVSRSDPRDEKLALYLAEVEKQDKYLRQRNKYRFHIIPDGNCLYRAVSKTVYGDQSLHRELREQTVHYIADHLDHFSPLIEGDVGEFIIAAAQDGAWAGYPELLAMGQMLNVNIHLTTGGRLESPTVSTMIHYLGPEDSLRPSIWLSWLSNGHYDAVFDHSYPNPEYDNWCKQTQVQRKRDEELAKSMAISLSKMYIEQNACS
# SARS-CoV-2 PLpro [6] = molecular target: T1, SARS-CoV-2 PLpro; test: biochemical; format: binding
# Chain of USP10 (Q14694 whole entry): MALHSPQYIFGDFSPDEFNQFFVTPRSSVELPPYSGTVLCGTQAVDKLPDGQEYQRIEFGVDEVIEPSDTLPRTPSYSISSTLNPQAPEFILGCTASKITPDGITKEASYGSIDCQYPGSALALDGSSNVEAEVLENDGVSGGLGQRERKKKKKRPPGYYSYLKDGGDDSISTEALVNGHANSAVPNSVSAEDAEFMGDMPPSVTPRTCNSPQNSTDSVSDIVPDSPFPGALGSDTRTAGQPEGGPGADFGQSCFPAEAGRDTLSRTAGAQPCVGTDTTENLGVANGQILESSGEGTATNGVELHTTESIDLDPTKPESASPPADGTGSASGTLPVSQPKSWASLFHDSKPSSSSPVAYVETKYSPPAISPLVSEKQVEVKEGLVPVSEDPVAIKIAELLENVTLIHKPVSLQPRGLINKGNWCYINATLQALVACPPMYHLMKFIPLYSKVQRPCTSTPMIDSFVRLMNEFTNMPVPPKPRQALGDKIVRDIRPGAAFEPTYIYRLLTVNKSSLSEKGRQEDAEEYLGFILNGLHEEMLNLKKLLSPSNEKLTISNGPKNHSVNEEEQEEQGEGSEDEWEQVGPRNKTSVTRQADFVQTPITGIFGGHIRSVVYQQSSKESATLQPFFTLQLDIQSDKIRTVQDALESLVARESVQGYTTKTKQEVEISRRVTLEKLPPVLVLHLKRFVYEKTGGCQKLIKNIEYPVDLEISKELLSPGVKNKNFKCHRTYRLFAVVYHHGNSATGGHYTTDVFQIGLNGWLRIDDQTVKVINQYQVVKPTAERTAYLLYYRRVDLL
smiles,measurement,setting,value
COc1ccc2cc(C(=O)C3CCCN(C4CCCC4)C3)ccc2c1 (centres unmarked) [WEHI-P1],cross-reactivity in a panel of human DUBs,[1],no cross-reactivity
same,"inhibition of USP10, UbRh dose-response replicate value",USP10,-17.9764 and -33.546 and -1.777 and -1.005 and -2.268 and -5.196 and 1.437 and 7.331 and 6.946 and -2.385 and 10.5944 and 12.4488 and -3.943 and -14.76 and 8.848 and 13.2594 and -3.1801
same,"inhibition of USP10, UbRh dose-response replicate value",USP10; Conc 0.00498 µM,10.1443 and 12.7446 and 2.857 and 1.607
same,"inhibition of USP10, UbRh dose-response replicate value",USP10; Conc 0.0149 µM,1.87 and 11.8374 and 1.723 and 2.761
same,"inhibition of USP10, UbRh dose-response replicate value",USP10; Conc 0.0448 µM,5.874 and 6.2633 and -3.914
same,"inhibition of USP10, UbRh dose-response replicate value",USP10; Conc 3.63 µM,-1.745 and -4.256 and -2.239 and 0.7005
same,"inhibition of USP10, UbRh dose-response replicate value",USP10; Conc 98 µM,-22.6046 and 5.737 and 3.4
same,EC50,[2],> 2000 nM
same,"inhibition of ATXN3, UbRh dose-response replicate value",ATXN3,-8.641 and -11.1993 and -4.869 and 4.344 and -19.3823 and -18.001 and -0.7368 and -2.308 and -5.209 and -10.7506 and -7.279 and -8.7353 and -8.48 and -12.1184 and -9.5356 and 0.5603 and -15.7867 and -11.4036 and -7.524
same,"inhibition of ATXN3, UbRh dose-response replicate value",ATXN3; Conc 0.00498 µM,-12.0566 and -16.4021 and -4.426 and -13.5708
same,"inhibition of ATXN3, UbRh dose-response replicate value",ATXN3; Conc 0.0149 µM,-11.0193 and -9.528 and -12.1815 and -14.805
same,"inhibition of ATXN3, UbRh dose-response replicate value",ATXN3; Conc 0.0448 µM,-8.047 and -9.745 and -7.569 and -8.486
same,"inhibition of ATXN3, UbRh dose-response replicate value",ATXN3; Conc 3.63 µM,-16.703 and -12.2662 and -13.9462 and -9.635
same,"inhibition of ATXN3, UbRh dose-response replicate value",ATXN3; Conc 98 µM,-16.0742 and -15.5502
same,"inhibition of UCHL3, UbRh dose-response replicate value",UCHL3,-15.7962 and -10.6437 and -3.089 and -8.07 and -1.79 and -9.314 and -4.512 and -11.432 and -8.325 and -0.3429 and -5.346 and 2.661 and -3.761 and -0.9211 and -0.1651 and 0.1836 and -9.635 and -0.5542 and -7.392
same,"inhibition of UCHL3, UbRh dose-response replicate value",UCHL3; Conc 0.00498 µM,-2.717 and -5.843 and -1.232 and -3.133
same,"inhibition of UCHL3, UbRh dose-response replicate value",UCHL3; Conc 0.0149 µM,-3.556 and -7.101 and -2.8889 and -5.9018
same,"inhibition of UCHL3, UbRh dose-response replicate value",UCHL3; Conc 0.0448 µM,-13.5671 and -9.936 and 2.559 and -5.235
same,"inhibition of UCHL3, UbRh dose-response replicate value",UCHL3; Conc 3.63 µM,-2.824 and -12.2743 and -7.514 and -7.892
same,"inhibition of UCHL3, UbRh dose-response replicate value",UCHL3; Conc 98 µM,-24.2494 and -16.3148 and -12.8948 and -13.0616
same,"inhibition of SARS-CoV-2 PLpro, UbRh dose-response replicate value",SARS-CoV-2 PLpro [3]; Conc 0.00498 µM,-13.6732 and 2.3131 and -7.154 and -11.0795 and 7.963 and 4.4501 and -10.0607 and -6.545 and -6.343 and -0.9072 and -6.992 and -7.263 and -7.665
same,"inhibition of SARS-CoV-2 PLpro, UbRh dose-response replicate value",SARS-CoV-2 PLpro [3]; Conc 0.0149 µM,-0.6879 and 3.256 and -8.137 and -12.3628 and 2.155 and 5.8571 and -3.891 and -5.469 and -7.734 and -5.926 and -7.3449
same,"inhibition of SARS-CoV-2 PLpro, UbRh dose-response replicate value",SARS-CoV-2 PLpro [3]; Conc 0.0448 µM,1.291 and 3.348 and -5.506 and -4.578 and 2.528 and 6.172 and -28.1035 and -26.7808 and -16.0105 and -8.021 and -5.978 and -3.428 and -7.448
same,"inhibition of SARS-CoV-2 PLpro, UbRh dose-response replicate value",SARS-CoV-2 PLpro [3]; Conc 3.63 µM,55.1403 and 49.1297 and 72.2398 and 55.1118 and 68.8818 and 68.3038 and 70.3435 and 68.1584 and 58.3924 and 61.1283 and 62.8891 and 58.2582 and 68.987
same,"inhibition of SARS-CoV-2 PLpro, UbRh dose-response replicate value",SARS-CoV-2 PLpro [3]; Conc 98 µM,124.948 and 118.973 and 118.719 and 93.4483 and 92.6536 and 95.3254 and 94.6236 and 97.9546 and 83.9689 and 107.904 and 110.814 and 103.242 and 108.864
same,IC50,SARS-CoV-2 PLpro [3],2600 nM
same,IC50,SARS-CoV-2 PLpro [3]; Supplementary Fig. 2b,2600 nM
same,EC50,SARS-CoV-2 PLpro [4],> 20000 nM
same,"inhibition of SARS-CoV PLpro, UbRh dose-response replicate value",SARS-CoV PLpro; Conc 3.63 µM,43.26 and 41.4233 and 40.1519 and 56.4827 and 56.7648 and 53.2219
same,inhibition at 3.63 µM,"SARS-CoV PLpro; Conc 3.63 µM, read-out: inhibition of SARS-CoV PLpro, UbRh dose-response replicate value",43.3%
same,"inhibition of SARS-CoV PLpro, UbRh dose-response replicate value",SARS-CoV PLpro; Conc 98 µM,89.3568 and 87.1144 and 87.3043 and 96.6611 and 96.2974 and 95.7026 and 96.1294
same,inhibition at 98 µM,"SARS-CoV PLpro; Conc 98 µM, read-out: inhibition of SARS-CoV PLpro, UbRh dose-response replicate value",89.2%
same,inhibition at […],"SARS-CoV PLpro; read-out: inhibition of SARS-CoV PLpro, UbRh dose-response replicate value",84.6% and 69.7%
same,"inhibition of Cezanne, UbRh dose-response replicate value",Cezanne,-18.912 and -15.6278 and -2.351 and 1.9841 and -10.3668 and -26.3356 and -4.177 and -7.241 and -8.329 and -15.5113 and -9.927 and -0.3728 and -12.3899 and 0.2487 and -4.422 and -3.858 and -10.5494 and -3.083 and 1.0161 and -4.6404
same,"inhibition of Cezanne, UbRh dose-response replicate value",Cezanne; Conc 0.00498 µM,-5.218 and -11.645 and -1.408 and -0.02766
same,"inhibition of Cezanne, UbRh dose-response replicate value",Cezanne; Conc 0.0149 µM,-1.15 and -11.2131 and -3.066 and -2.486
same,"inhibition of Cezanne, UbRh dose-response replicate value",Cezanne; Conc 0.0448 µM,-8.614 and -15.6484 and -3.285 and 0.7467
same,"inhibition of Cezanne, UbRh dose-response replicate value",Cezanne; Conc 3.63 µM,-15.9321 and -15.0246 and -5.238 and -9.8
same,"inhibition of Cezanne, UbRh dose-response replicate value",Cezanne; Conc 98 µM,-30.6124 and -29.2216 and 3.466 and 11.4705
same,Molar Mass (kDa),SARS-CoV-2 PLpro [5],32.7945 kDa and 33.2145 kDa and 33.2745 kDa
same,observed molar mass of PLpro (SEC-MALS),SARS-CoV-2 PLpro [5],34.9 kDa
same,"inhibition of MERS-CoV PLpro, UbRh dose-response replicate value",MERS-CoV PLpro; Conc 0.00498 µM,-4.614 and -3.364 and 0.3636 and -5.453 and 6.667 and 6.005 and 3.997 and 2.909
same,"inhibition of MERS-CoV PLpro, UbRh dose-response replicate value",MERS-CoV PLpro; Conc 0.0149 µM,-3.576 and -5.738 and -4.053 and -6.88 and 8.95 and 6.88 and 9.641 and 2.2309
same,"inhibition of MERS-CoV PLpro, UbRh dose-response replicate value",MERS-CoV PLpro; Conc 0.0448 µM,-7.082 and -11.2097 and -12.434 and -8.665 and 6.324 and 5.9119 and 5.395 and 2.288
same,"inhibition of MERS-CoV PLpro, UbRh dose-response replicate value",MERS-CoV PLpro; Conc 3.63 µM,-1.223 and -11.7007 and -12.14 and -8.237 and 5.5159 and 6.719
same,"inhibition of MERS-CoV PLpro, UbRh dose-response replicate value",MERS-CoV PLpro; Conc 98 µM,-14.4158 and -18.412 and -13.4114 and -9.9342 and 9.6505 and 10.1326 and 6.766 and 4.38
same,"inhibition of USP21, UbRh dose-response replicate value",USP21,-17.3591 and -12.2032 and -18.6472 and -15.4853 and -14.4522 and -19.2052 and -17.9515 and -18.065 and -8.946 and -2.6161 and -10.7527 and -20.9333 and -7.844 and -9.819 and -13.8068 and -21.9255 and -4.154 and -2.302 and -19.2663 and -19.4961
same,"inhibition of USP21, UbRh dose-response replicate value",USP21; Conc 0.00498 µM,-6.669 and -13.4551 and -20.5516 and -18.4137
same,"inhibition of USP21, UbRh dose-response replicate value",USP21; Conc 0.0149 µM,-7.696 and -8.6697 and -11.755 and -9.346
same,"inhibition of USP21, UbRh dose-response replicate value",USP21; Conc 0.0448 µM,-2.649 and -22.6918 and -12.9296
same,"inhibition of USP21, UbRh dose-response replicate value",USP21; Conc 3.63 µM,-16.692 and -5.223 and -23.134 and -16.0626
same,"inhibition of USP21, UbRh dose-response replicate value",USP21; Conc 98 µM,-13.9863 and -21.5031 and -20.8818 and -12.5688
same,"inhibition of OTUD1, UbRh dose-response replicate value",OTUD1,-10.6037 and -11.2887 and -9.792 and -7.833 and -12.7647 and -0.9075 and 2.163 and -5.7654 and -7.285 and -0.8912 and -5.258 and -7.97 and -1.274 and -2.017 and -4.922 and 1.155 and -8.198 and 3.097 and -7.799 and -6.802
same,"inhibition of OTUD1, UbRh dose-response replicate value",OTUD1; Conc 0.00498 µM,-2.098 and -3.857
same,"inhibition of OTUD1, UbRh dose-response replicate value",OTUD1; Conc 0.0149 µM,0.5359 and 5.168 and -4.672 and 0.608
same,"inhibition of OTUD1, UbRh dose-response replicate value",OTUD1; Conc 0.0448 µM,0.07106 and -1.381 and -0.3944 and -8.021
same,"inhibition of OTUD1, UbRh dose-response replicate value",OTUD1; Conc 3.63 µM,-3.7862 and -2.718 and -1.038 and -8.072
same,"inhibition of OTUD1, UbRh dose-response replicate value",OTUD1; Conc 98 µM,-27.4599 and -27.4028
same,Kd,SARS-CoV-2 PLpro [6],8300 nM
